Values quoted from earlier work, collected in patent US7267830B2, “Composition and methods for inhibiting the progression macular degeneration and promoting healthy vision” (Alcon, Inc., priority 2003, dated 2007).
Read-outs that look alike come from different tables or passages of the source.

Legend:
[1] = system: macular degeneration changes; conditions: zinc supplement, Newsome 1988

[Zn] [Zinc]
tolerability (100 mg zinc a day (Wagner 1985)): well tolerated without difficulty | tolerability (150 mg of zinc a day (Wagner 1985)): well tolerated without difficulty | tolerability (about 200 mg of zinc per day): well-tolerated | potential side effects (about 200 mg of zinc per day (Fischer 1983)): blocking copper absorption | retarding macular degeneration changes versus placebo [1]: significantly better than placebo
